Measurements published in patent US12599136B2, “Substituted isophthalic acid diamides and their use as herbicides” (Bayer Aktiengesellschaft, priority 2020, dated 2026).

Tests used:
Format in all cases: in vivo
[1] = test system: Abutilon theophrasti; assay: Pre-emergence herbicidal action against ABUTH; conditions: visual score after 3 weeks vs untreated controls
From the text: (§1) Seeds of monocotyledonous and dicotyledonous weed plants and crop plants are laid out in sandy loam soil in wood-fiber pots and covered with soil. The compounds of the invention, formulated in the form of wettable powders (WP) or as emulsion concentrates (EC), are then applied to the surface of the covering soil in the form of an aqueous suspension or emulsion at a water application rate equivalent to 600 to 800 l/ha, with addition of 0.2% wetting agent. After the treatment, the pots are placed in a greenhouse and kept under good growth conditions for the trial plants. The damage to the test plants is scored visually after a test period of 3 weeks by comparison with untreated controls (herbicidal activity in percent (%): 100% activity=the plants have died, 0% activity=like control plants). […] The tables below illustrate, in an illustrative manner, the post-emergence herbicidal action of the compounds of the invention, the herbicidal activity being stated in percent.

[2] = test system: Alopecurus myosuroides; assay: Pre-emergence herbicidal action against ALOMY; conditions: 80 g/ha; visual score after 3 weeks vs untreated controls
From the text: as §1

[3] = test system: Amaranthus retroflexus; assay: Pre-emergence herbicidal action against AMARE; conditions: visual score after 3 weeks vs untreated controls
From the text: as §1

[4] = test system: Echinochloa crus-galli; assay: Pre-emergence herbicidal action against ECHCG; conditions: visual score after 3 weeks vs untreated controls
From the text: as §1

[5] = test system: Matricaria inodora; assay: Pre-emergence herbicidal action against MATIN; conditions: visual score after 3 weeks vs untreated controls
From the text: as §1

[6] = test system: Digitaria sanguinalis; assay: Pre-emergence herbicidal action against DIGSA
From the text: as §1

[7] = test system: Setaria viridis; assay: Pre-emergence herbicidal action against SETVI
From the text: as §1

[8] = test system: Veronica persica; assay: Pre-emergence herbicidal action against VERPE
From the text: as §1

[9] = test system: Viola tricolor; assay: Pre-emergence herbicidal action against VIOTR
From the text: as §1

[10] = test system: Alopecurus myosuroides; assay: Post-emergence herbicidal action against ALOMY
Experimental: (§2) Seeds of monocotyledonous and dicotyledonous weed and crop plants are laid out in sandy loam soil in wood-fiber pots, covered with soil and cultivated in a greenhouse under good growth conditions. 2 to 3 weeks after sowing, the test plants are treated at the one-leaf stage. The compounds of the invention, formulated in the form of wettable powders (WP) or as emulsion concentrates (EC), are then sprayed onto the green parts of the plants in the form of an aqueous suspension or emulsion at a water application rate equivalent to 600 to 800 l/ha, with addition of 0.2% wetting agent. After the test plants have been left to stand in the greenhouse under optimal growth conditions for about 3 weeks, the action of the preparations is assessed visually in comparison to untreated controls (herbicidal action in percent (%): 100% activity=the plants have died, 0% activity=like control plants). […] The tables below illustrate, in an illustrative manner, the post-emergence herbicidal action of the compounds of the invention, the herbicidal activity being stated in percent.

[11] = test system: Echinochloa crus-galli; assay: Post-emergence herbicidal action against ECHCG; conditions: visual assessment about 3 weeks after treatment
Experimental: as §2

[12] = test system: Matricaria inodora; assay: Post-emergence herbicidal action against MATIN; conditions: visual assessment about 3 weeks after treatment
Experimental: as §2

[13] = test system: Setaria viridis; assay: Post-emergence herbicidal action against SETVI; conditions: visual assessment about 3 weeks after treatment
Experimental: as §2

[14] = test system: Veronica persica; assay: Post-emergence herbicidal action against VERPE; conditions: visual assessment about 3 weeks after treatment
Experimental: as §2

[15] = test system: Avena fatua; assay: Pre-emergence herbicidal action against AVEFA; conditions: 80 g/ha; visual score after 3 weeks vs untreated controls
From the text: as §1

[16] = test system: Polygonum convolvulus; assay: Pre-emergence herbicidal action against POLCO; conditions: 80 g/ha
From the text: as §1

[17] = test system: Abutilon theophrasti; assay: Post-emergence herbicidal action against ABUTH
Experimental: as §2

[18] = test system: Amaranthus retroflexus; assay: Post-emergence herbicidal action against AMARE; conditions: visual assessment about 3 weeks after treatment
Experimental: as §2

[19] = test system: Pharbitis purpurea; assay: Post-emergence herbicidal action against PHBPU; conditions: visual assessment about 3 weeks after treatment
Experimental: as §2

[20] = test system: Viola tricolor; assay: Post-emergence herbicidal action against VIOTR
Experimental: as §2

[21] = test system: Cyperus esculentus; assay: Pre-emergence herbicidal action against CYPES; conditions: visual score after 3 weeks vs untreated controls
From the text: as §1

[22] = test system: Stellaria media; assay: Pre-emergence herbicidal action against STEME; conditions: 320 g/ha
From the text: as §1

[23] = test system: Stellaria media; assay: Post-emergence herbicidal action against STEME; conditions: 80 g/ha, visual assessment about 3 weeks after treatment
Experimental: as §2

Structure (SMILES)	Pre-emergence action against ABUTH ([1]; 80 g/ha) [%]	Pre-emergence action against ALOMY [2] [%]	Pre-emergence action against AMARE ([3]; 20 g/ha) [%]	Pre-emergence action against AMARE ([3]; 80 g/ha) [%]	Pre-emergence action against ECHCG ([4]; 80 g/ha) [%]	Pre-emergence action against MATIN ([5]; 20 g/ha) [%]	Pre-emergence action against MATIN ([5]; 80 g/ha) [%]	Pre-emergence action against VERPE ([8]; 80 g/ha) [%]	Pre-emergence action against VIOTR ([9]; 80 g/ha) [%]	Post-emergence action against ALOMY ([10]; 20 g/ha) [%]	Post-emergence action against ECHCG in % ([11]; 20 g/ha) [%]	Post-emergence action against MATIN in % ([12]; 20 g/ha) [%]	Post-emergence action against SETVI in % ([13]; 20 g/ha) [%]	Post-emergence action against VERPE in % ([14]; 20 g/ha) [%]	Pre-emergence action against POLCO [16] [%]	Post-emergence action against ABUTH ([17]; 5 g/ha) [%]	Post-emergence action against ABUTH ([17]; 20 g/ha) [%]	Post-emergence action against AMARE in % ([18]; 5 g/ha) [%]	Post-emergence action against AMARE in % ([18]; 20 g/ha) [%]	Post-emergence action against VIOTR in % ([20]; 20 g/ha) [%]	further results
Cc1c(C(=O)Nc2nnnn2C)ccc(C(F)(F)F)c1C(=O)N(C)C1CC1 [Example 1-21]	100	90	100	100	90	80	100	80	100	80	90	80	90	80	–	–	–	–	–	–	Pre-emergence action against DIGSA ([6]; 20 g/ha): 100%; Pre-emergence action against DIGSA ([6]; 80 g/ha): 100%; Pre-emergence action against SETVI ([7]; 80 g/ha): 100%; Pre-emergence action against VIOTR ([9]; 20 g/ha): 90%
CN(C(=O)c1c(C(F)F)ccc(C(=O)Nc2nnnn2C)c1Cl)C1CC1 [Example 1-156]	100	100	100	100	90	90	100	90	100	90	90	90	90	80	80	90	90	100	100	90	Pre-emergence action against ABUTH ([1]; 20 g/ha): 100%; Pre-emergence action against AVEFA [15]: 80%; Pre-emergence action against SETVI ([7]; 80 g/ha): 100%; Post-emergence action against ALOMY ([10]; 5 g/ha): 80%; Post-emergence action against ECHCG in % ([11]; 5 g/ha): 90%; Post-emergence action against MATIN in % ([12]; 5 g/ha): 80%; Post-emergence action against PHBPU in % ([19]; 5 g/ha): 80%; Post-emergence action against PHBPU in % ([19]; 20 g/ha): 90%; Post-emergence action against SETVI in % ([13]; 5 g/ha): 90%; Post-emergence action against VERPE in % ([14]; 5 g/ha): 80%; Post-emergence action against VIOTR in % ([20]; 5 g/ha): 90%
Cc1c(C(=O)Nc2nnnn2C)ccc(S(C)(=O)=O)c1C(=O)N(C)C [Example 1-395]	90	–	–	100	–	–	–	100	80	–	100	–	–	–	–	–	–	–	–	–	Pre-emergence action against ABUTH ([1]; Dosage column 320 g/ha (heading prints 3200 g/ha)): 100%; Pre-emergence action against AMARE ([3]; 320 g/ha): 100%; Pre-emergence action against CYPES ([21]; 80 g/ha): 100%; Pre-emergence action against CYPES ([21]; 320 g/ha): 100%; Pre-emergence action against ECHCG ([4]; 320 g/ha): 100%; Pre-emergence action against MATIN ([5]; 320 g/ha): 100%; Pre-emergence action against SETVI ([7]; 320 g/ha): 100%; Pre-emergence action against STEME [22]: 100%; Pre-emergence action against VERPE ([8]; 20 g/ha): 90%; Pre-emergence action against VERPE ([8]; 320 g/ha): 100%; Pre-emergence action against VIOTR ([9]; 320 g/ha): 100%; Post-emergence action against ABUTH ([17]; 80 g/ha): 100%; Post-emergence action against AMARE in % ([18]; 80 g/ha): 80%; Post-emergence action against ECHCG in % ([11]; 80 g/ha): 100%; Post-emergence action against SETVI in % ([13]; 80 g/ha): 90%; Post-emergence action against STEME in % [23]: 100%; Post-emergence action against VIOTR in % ([20]; 80 g/ha): 90%
CCn1nnnc1NC(=O)c1ccc(C(F)F)c(C(=O)N(C)C)c1C [Example 2-50]	100	90	90	100	80	90	90	80	–	80	90	–	80	90	90	90	90	100	100	90	Post-emergence action against ECHCG in % ([11]; 5 g/ha): 80%
CCN(C)C(=O)c1c(C(F)F)ccc(C(=O)Nc2nnnn2CC)c1C [Example 2-51]	100	100	90	90	–	90	100	–	80	90	90	80	90	90	90	90	90	90	100	90	Pre-emergence action against ABUTH ([1]; 20 g/ha): 100%; Pre-emergence action against AVEFA [15]: 80%; Post-emergence action against ALOMY ([10]; 5 g/ha): 80%; Post-emergence action against SETVI in % ([13]; 5 g/ha): 80%; Post-emergence action against VIOTR in % ([20]; 5 g/ha): 90%
